Results published in ChEMBL document CHEMBL1201862, “PubChem BioAssay data set” (2004).
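1) Cells in 96-well plates. 2) Compound, 48 h, 5 concentrations. 3) Linear interpolation between surrounding doses. 4) Unreached endpoint = highest concentration. The concentration for 50% growth inhibition is given as GI50.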 Active and inactive are the calls of the source. Rule as the data show it: active = GI50 up to about 1.1 µM and inactive = higher.

Assays:
Experiment in all cases: NCI-60 cell line screen, 48 h
[1] = system: NCI-H460
[2] = system: SNB-75
[3] = system: SF-539
[4] = system: UACC-62
[5] = system: SK-MEL-2
[6] = system: OVCAR-3
[7] = system: MDA-MB-435
[8] = system: IGROV-1
[9] = system: OVCAR-8
[10] = system: SF-268
[11] = system: MDA-N
[12] = system: UACC-257
[13] = system: SR
[14] = system: NCI/ADR-RES
[15] = system: DU-145
[16] = system: PC-3
[17] = system: EKVX
[18] = system: 786-0
[19] = system: MDA-MB-231
[20] = system: A498
[21] = system: SK-MEL-28
[22] = system: CAKI-1
[23] = system: NCI-H23
[24] = system: SK-MEL-5
[25] = system: HCT-15
[26] = system: LOX IMVI
[27] = system: MCF7
[28] = system: OVCAR-5
[29] = system: RPMI-8226
[30] = system: NCI-H226
[31] = system: SN12C
[32] = system: HCT-116
[33] = system: K562
[34] = system: BT-549
[35] = system: HT-29
[36] = system: ACHN
[37] = system: SF-295
[38] = system: Hs-578T
[39] = system: HOP-62
[40] = system: SW-620
[41] = system: RXF 393
[42] = system: M14
[43] = system: SK-OV-3
[44] = system: UO-31
[45] = system: CCRF-CEM
[46] = system: SNB-19
[47] = system: HCC 2998
[48] = system: KM12
[49] = system: NCI-H522
[50] = system: Malme-3M
[51] = system: U-251
[52] = system: TK-10
[53] = system: COLO 205
[54] = system: T47D
[55] = system: HOP-92
[56] = system: A549
[57] = system: OVCAR-4
[58] = system: HL-60
[59] = system: MOLT-4

Measured: GI50

CC1=NOC(=O)/C1=C/c1ccc2c(c1)OCO2
inactive: [1] 35.1 µM | [2] 22.1 µM | [3] 24.3 µM | [4] 21.5 µM | [5] 19.6 µM | [6] 30.2 µM | [7] 23.4 µM | [8] 25.2 µM | [9] 25.4 µM | [10] 34.8 µM | [11] 32.3 µM | [12] 73.5 µM | [13] 15.9 µM | [14] 39.5 µM | [15] 25.1 µM | [16] 21 µM | [17] 77.3 µM | [18] 21.9 µM | [19] 24.5 µM | [20] 26.3 µM | [21] 30.8 µM | [22] 17.3 µM | [23] 37.3 µM | [24] 34.1 µM | [26] 19 µM | [27] 30.2 µM | [28] 37.1 µM | [29] 21.8 µM | [30] 21.6 µM | [31] 25.4 µM | [32] 34 µM | [33] 55.3 µM | [34] 24 µM | [35] 24.4 µM | [36] 19.1 µM | [37] 26.7 µM | [38] 39.5 µM | [39] 19.2 µM | [40] 21.1 µM | [41] 16 µM | [42] 35.3 µM | [43] > 100 µM | [44] 21.1 µM | [45] 20.7 µM | [46] 30.7 µM | [47] 28.9 µM | [48] 19.1 µM | [49] 38.5 µM | [50] 43.6 µM | [51] 18.7 µM | [52] 39.2 µM | [53] 17.7 µM | [54] > 100 µM | [55] 30.2 µM | [56] 61.8 µM | [57] 63.1 µM
20.8 µM: [25]

CC[C@H](C)[C@@H]([C@@H](CC(=O)N1CCC[C@H]1[C@H](OC)[C@@H](C)C(=O)NCCc1ccccc1)OC)N(C)C(=O)C(NC(=O)[C@H](C(C)C)N(C)C)C(C)C (stereo partly specified)
0.00201 µM: [25]
active: [1] 0.000211 µM | [2] 0.000275 µM | [3] 0.000232 µM | [4] 0.000275 µM | [5] 0.000423 µM | [6] 4.09e-05 µM | [7] 3.18e-05 µM | [8] 0.000363 µM | [9] 0.000333 µM | [10] 0.000658 µM | [11] 3.46e-05 µM | [12] 0.00139 µM | [13] 2.57e-05 µM | [14] 0.00736 µM | [15] 0.000227 µM | [16] 0.000119 µM | [17] 0.000964 µM | [18] 0.00021 µM | [19] 0.000526 µM | [20] 0.000266 µM | [22] 0.00216 µM | [23] 0.000314 µM | [24] 4.18e-05 µM | [26] 0.000299 µM | [27] 4.54e-05 µM | [29] 0.000203 µM | [30] 0.00064 µM | [31] 0.000361 µM | [32] 0.000255 µM | [58] 7.02e-05 µM | [33] 6.68e-05 µM | [34] 0.000588 µM | [35] 8.89e-05 µM | [36] 0.000757 µM | [38] 0.000446 µM | [39] 0.000235 µM | [40] 0.000249 µM | [41] 0.000174 µM | [42] 0.000203 µM | [44] 0.00103 µM | [45] 0.000219 µM | [46] 0.000395 µM | [47] 0.000266 µM | [48] 8.57e-05 µM | [49] 5.83e-05 µM | [50] 0.001 µM | [51] 0.000251 µM | [52] 0.000676 µM | [53] 9.16e-05 µM | [55] 0.0069 µM | [56] 0.000248 µM | [57] 0.00094 µM | [59] 0.000132 µM
inactive: [21] > 10 µM | [54] > 10 µM

Clc1ccc(/C=N/C23CC4CC(CC(C4)C2)C3)cc1Cl
inactive: [1] > 10 µM | [2] > 10 µM | [3] > 10 µM | [4] > 10 µM | [5] > 10 µM | [6] > 10 µM | [7] > 10 µM | [8] > 10 µM | [9] > 10 µM | [10] > 10 µM | [11] > 10 µM | [12] > 10 µM | [13] > 10 µM | [14] > 10 µM | [15] > 10 µM | [16] > 10 µM | [17] > 10 µM | [18] > 10 µM | [19] > 10 µM | [20] > 10 µM | [21] > 10 µM | [22] > 10 µM | [23] > 10 µM | [24] > 10 µM | [26] > 10 µM | [27] > 10 µM | [28] > 10 µM | [29] > 10 µM | [30] > 10 µM | [31] > 10 µM | [32] > 10 µM | [58] > 10 µM | [33] > 10 µM | [34] > 10 µM | [35] > 10 µM | [36] > 10 µM | [37] > 10 µM | [38] > 10 µM | [39] > 10 µM | [40] > 10 µM | [41] > 10 µM | [42] > 10 µM | [43] > 10 µM | [45] > 10 µM | [46] > 10 µM | [47] > 10 µM | [48] > 10 µM | [49] > 10 µM | [50] > 10 µM | [51] > 10 µM | [52] > 10 µM | [53] > 10 µM | [54] > 10 µM | [55] > 10 µM | [56] > 10 µM | [57] > 10 µM | [59] > 10 µM
> 10 µM: [25]
